In patent US4853334A, “Method for the degradation of volatile chlorinated aliphatic hydrocarbons using pseudomonas fluorescens” (Microlife Technics, Inc., priority 1988, dated 1989):
Several values for one entry are separate records, joined by “and”; a condition that tells them apart may be missing. Equal entries are not always repeated.

Legend:
[1] = system: Pseudomonas fluorescens NRRL-B-18296; test: Degradation of halogenated hydrocarbons by the strain (general statements); type: cell-based
[2] = system: Pseudomonas fluorescens NRRL-B-18296; test: Degradation of various chloroaliphatic carbon sources in minimal medium broth (Example 3); type: cell-based; conditions: 100 ppm; mmo with 0.5% glucose, 0.005% yeast extract, 0.4% potassium nitrate; 10^6 bacteria/ml; 25° C., 24 hours
Description: (§1) In Examples 3 to 6, compounds of interest were quantitated using a Perkin-Elmer (model 8500) gas chromatograph equipped with an HS-6 headspace analyzer (Perkin-Elmer, Norwalk, CT). The instrument was fitted with a 6 foot stainless steel Sp2100 column (Supelco, Bellefonte, PA). Carrier gas flow rate (helium) was 20 ml/min. with an isothermal column temperature of 60° C. Injector and detector temperatures were 150° C. and 200° C. respectively.
(§2) All sample vials were equilibrated at 80° C. in the headspace analyzer for 10 minutes. Vial pressurization times of 30 seconds and injection times of 6 seconds were both controlled by programmed instrument time functions.
(§3) Calibrations were made by the external standard method using the internal data handling capabilities of the instrument. 100 ppm standards were prepared by dispensing 10 ul of the compounds into a serum bottle containing 100.0 g of chilled media analogous to experimental vials. Once the compound was completely dissolved, 2.00 g of the mixture was delivered by syringe to a headspace vial and sealed for subsequent headspace GC analysis.
(§4) Analysis of experimental vials was conducted by removing an aliquot by syringe and delivering 2.00 g to a headspace vial. Vials (6 ml) specified for use with the headspace analyzer were sealed using 19 mm TFE/silicone rubber septa and 20 mm crimp top seals (Alltech Associates, Deerfield, IL). A hand operated crimper was utilized.
The experiments were accomplished in 50 ml of minimal medium (mmo) that was modified. The modified minimal media (mmo) contained the sodium-potassium phosphate buffer at 0.06 M final concentration. The modified (mmo) was supplemented to a final concentration with 0.5% glucose, 0.005% yeast extract, 0.4% potassium nitrate and the volatile chloroaliphatic compound at 100 ppm. The flasks were inoculated with Pseudomonas fluorescens NRRL-B-18296 at 10^6 bacteria/ml. The remaining headspace in the vials was then filled with pure oxygen (approximately 60 ml) and sealed using 19 mm TFE/silicone rubber septa with 20mm crimp top seals. A hand operated crimper was utilized. The sealed vials were then shaken at 350 rpm on a New Brunswick gyrotary shaker (New Brunswick Scientific, Edison, NJ) at 25° C. for 24 hours.
Samples in triplicate (2.00 g) were removed after the 24 hour incubation. The samples were sealed in 6 ml vials and subjected to headspace analysis.
^1 values reported as percentage amounts of 100 ppm carbon source

[3] = system: Pseudomonas fluorescens NRRL-B-18296; test: Growth on volatile chlorinated carbon sources (minimal media, vapor phase); type: cell-based; parameters: key: +: Growth; -: no growth; conditions: 72 hours at 25° C., minimal media (mmo), carbon source in vapor phase of sealed container
Description: ^1 Incubation was for 72 hours at 25° C. on minimal media
(mmo). Volatile carbon sources were supplied in the vapor phase of a
sealed container. +, Growth; -, no growth.

[4] = system: Pseudomonas fluorescens NRRL-B-18296; test: Degradation of a mixture of 1,2-dichloroethane and 1,2-dichloropropane, 0.1% glucose (Example 4); type: cell-based; conditions: for % degradation: mixture, 100 ppm each, 0.1% glucose, 0.4% potassium nitrate, 10^6 bacteria/ml, 25° C., 168 hours
Description: as §1, §2, §3, §4
The potassium nitrate provides an assured oxygen source for this strain, since the degradations must be conducted under aerobic conditions.
^1 Experiments were accomplished in 100 ml minimal medium (mmo) supplemented with 0.1% glucose, 100 ppm of 1,2-dichloroethane, 100 ppm of 1,2-dichloropropane, and 0.4% potassium nitrate. The flasks were inoculated with Pseudomonas fluorescens NRRL-B-18296 at 10^6 bacteria/ml, sealed and shaken at 350 rpm on a New Brunswick gyrotary shaker (New Brunswick Scientific, Edison, NJ) at 25° C. for 168 hours. The shaking provides further oxygen to the medium.

[5] = system: Pseudomonas fluorescens NRRL-B-18296; test: Degradation of a mixture of 1,2-dichloroethane and 1,2-dichloropropane, 1.0% glucose (Example 5); type: cell-based; conditions: glucose concentration increased to 1.0%
Description: as §1, §2, §3
Analysis of experimental vials was conducted by removing an aliquot by syringe and delivering 2.00 g to a headspace vial. Vials (6 ml) specified for use with the headspace analyzer were sealed using 19 mm TFE/silicone rubber septa and 20 mm crimp top seals (Alltech Associates, Deerfield, IL). […]

[6] = system: Pseudomonas fluorescens NRRL-B-18296; test: Induction of degradation of 1,2-dichloroethane using various carbon sources (Example 6); type: cell-based
Description: as §1, §2
as §3, with “analysis. […]” for “analysis.”
Individual flasks were supplemented with the following carbon sources at 2mM: ethanol, sodium acetate, glucose, sodium succinate, sodium benzoate, ortho cresol or meta cresol. […] After incubation for 24 hours, the vials were analyzed directly on the headspace gas chromatograph.

[7] = system: Acinetobacter sp.; conditions: induced by prior growth on phenol; Nelson et al.; cited from earlier work
[8] = formed by anaerobic methanogens; Bouwer 1983; cited from earlier work

| Compound | Degradation by the strain (in words) [1] | % degradation [2] | Growth on carbon source [3] | further results |
| --- | --- | --- | --- | --- |
| CC(Cl)(Cl)Cl [1,1,1-trichloroethane] | not degraded | 0% |  |  |
| ClCC(Cl)Cl [1,1,2-trichloroethane] | can be degraded | 23% | + |  |
| ClCCCl [1,2-dichloroethane] | can be degraded | 10% | + | Degradation upon extended degradation and supplementing with more glucose [4]: substantially completely degraded; % degradation [4]: 23.3% and 23%; degradative rate, with respect to time [5]: increased |
| CC(Cl)CCl (stereo not drawn) [1,2-dichloropropane] | can be degraded | 3% | + | Degradation upon extended degradation and supplementing with more glucose [4]: substantially completely degraded; % degradation [4]: 32.1% and 32%; degradative rate, with respect to time [5]: increased |
| ClCCCCl [1,3-dichloropropane] |  | 0% | - |  |
| CC(C)(Cl)Cl [2,2-dichloropropane] | can be degraded | 7% | + |  |
| ClC(Cl)(Cl)Cl [Carbon tetrachloride] | not degraded |  |  |  |
| CC(O)C(=O)O (stereo not drawn) [Sodium lactate] |  |  |  | Suitability as carbon source for the strain ([6]; 20 mM sodium lactate pre-culture, 25° C., 24 hours): effective carbon source |
| ClCCl [dichloromethane] | not degraded |  |  |  |
| O=C[C@H](O)[C@@H](O)[C@H](O)[C@H](O)CO [glucose] |  |  |  | Induction of degradation of 1,2-dichloroethane ([6]; short time period of degradation): best carbon source to induce the degradation of 1,2-dichloroethane |
| ClC(Cl)=C(Cl)Cl [tetrachloroethylene] |  | 0% | - |  |
| ClC=C(Cl)Cl [trichloroethylene] | can be degraded | 2% | + | aerobic metabolism (in words) [7]: aerobic metabolism |
| C=CCl [vinyl chloride] |  |  |  | toxicity relative to haloaliphatic hydrocarbons [8]: more toxic than the haloaliphatic hydrocarbons |
